Results: US20060173015A1, “Cyclohexyldiamines as selective alpha 1a/1d adrenoreceptor antagonists for the treatment of benign prostatic hypertrophy and lower urinary tract symptoms” (priority 2004, published 2006)

Experiments:
α1a-AR = target: T1, α1a-AR (Homo sapiens, UniProt P35348); experiment: α1-Adrenergic receptor radio-ligand (125I-HEAT) binding assay, α1a subtype; conditions: for Ki: COS-7 cell membranes, 125I-HEAT
T1 construct: expressed in transfected cells; host or cells: COS-7
T1 sequence (P35348 1-466): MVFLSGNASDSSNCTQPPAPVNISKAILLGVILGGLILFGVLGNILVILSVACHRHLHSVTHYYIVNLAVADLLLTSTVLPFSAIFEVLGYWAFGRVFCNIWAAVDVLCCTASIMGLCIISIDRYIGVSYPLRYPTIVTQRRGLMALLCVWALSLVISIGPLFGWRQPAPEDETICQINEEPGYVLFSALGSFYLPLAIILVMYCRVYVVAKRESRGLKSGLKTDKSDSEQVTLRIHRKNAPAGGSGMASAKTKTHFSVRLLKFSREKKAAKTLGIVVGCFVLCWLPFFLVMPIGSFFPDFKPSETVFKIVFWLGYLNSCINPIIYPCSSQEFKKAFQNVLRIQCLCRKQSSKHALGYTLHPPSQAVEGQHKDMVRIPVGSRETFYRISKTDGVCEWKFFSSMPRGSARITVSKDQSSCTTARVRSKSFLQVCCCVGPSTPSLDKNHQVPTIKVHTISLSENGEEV
Protocol: (§1) α1-Adrenergic Receptor Binding Assay: Preparation of COS Cell Membranes
(§2) Membranes were prepared from COS-7 cells that had been transfected with one of the three α1-AR subtypes by the following method. COS cells from ten 100 mm tissue culture plates were scraped into 5 mL TE (50 mM Tris-HCl, 5 mM EDTA, pH 7.4). The cell suspension was disrupted with a Brinkman Polytron, setting 8, for 10 sec. The disrupted cells were centrifuged at 1000×g for 10 min at 4° C. Supernatants were centrifuged at 34,500×g for 20 min at 4° C. The membrane pellets were suspended in 2 mL TNE (50 mM Tris-HCl, 5 mM EDTA, 150 mM NaCl, pH7.4). An aliquot of the membrane suspension was stored at −70° C. until use. The protein concentration was determined using the BioRad DC protein assay kit following membrane solubilization with Triton X-100.
(§3) Radio-Ligand Binding Assay
(§4) Triplicate determinations of radio-ligand binding in the presence of increasing: concentrations of testing compound were made. The reagents were added to 96-well polypropylene plate wells using the Biomek 1000 robot (Beckman Instruments). Each assay well contained 140 μl TNE, 25 μL ^125I-HEAT (specific activity 2200 Ci/mmol, Dupont-NEN, 50 pM final), 10 μL testing compound dissolved in DMSO (1 pM to 10 μM in half-log increments, final), and 25 μL appropriate α1-AR membrane subtype suspension in TNE (0.5 ng/μL for the α1a and α1b subtypes and 13 ng/μL for the α1d subtype). The plate was incubated at rt for 1 hr. The contents of the wells were filtered through a GF/C membrane Unifilter plate (Packard Instruments) using the Packard Filtermate cell harvester. The filter plates were dried in a vacuum oven for 30 min at 40° C. 25 μL Microscint 20 liquid scintillation fluid (Packard Instuments) was added to each well. The radioactive content was analyzed in the TopCount microplate scintillation counter (Packard Instruments).

α1d-AR = target: T2, α1d-AR (Homo sapiens, UniProt P25100); experiment: α1-Adrenergic receptor radio-ligand (125I-HEAT) binding assay, α1d subtype; conditions: for Ki: COS-7 cell membranes, 125I-HEAT, read-out: Receptor Binding, Ki α1d-AR
T2 construct: expressed in transfected cells; host or cells: COS-7
T2 sequence (P25100 1-572): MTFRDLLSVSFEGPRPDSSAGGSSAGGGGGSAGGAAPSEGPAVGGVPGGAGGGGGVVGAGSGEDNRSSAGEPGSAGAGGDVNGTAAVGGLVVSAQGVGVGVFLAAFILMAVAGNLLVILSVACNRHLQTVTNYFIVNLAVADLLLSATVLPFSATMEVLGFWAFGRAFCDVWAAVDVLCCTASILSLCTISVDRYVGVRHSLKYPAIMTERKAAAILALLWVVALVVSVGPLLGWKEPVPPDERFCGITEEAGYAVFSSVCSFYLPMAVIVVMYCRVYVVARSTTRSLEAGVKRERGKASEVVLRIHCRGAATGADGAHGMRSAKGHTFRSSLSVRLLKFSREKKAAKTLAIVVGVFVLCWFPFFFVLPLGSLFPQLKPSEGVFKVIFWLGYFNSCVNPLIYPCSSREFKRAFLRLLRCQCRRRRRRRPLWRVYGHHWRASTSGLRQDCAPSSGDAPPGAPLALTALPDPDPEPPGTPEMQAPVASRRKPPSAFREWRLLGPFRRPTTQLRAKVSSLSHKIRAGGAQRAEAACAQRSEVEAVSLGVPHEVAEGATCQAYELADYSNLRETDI
Protocol: as §1, §2, §3
as §4, with “Each assay well contained 140 μl TNE, 25 μL ^125I-HEAT (specific activity 2200 Ci/mmol, Dupont-NEN, 50 pM final), 10 μL testing compound dissolved in DMSO (1 pM to 10 μM in half-log increments, final), and 25 μL appropriate α1-AR membrane subtype suspension in TNE (0.5 ng/μL for the α1a and α1b subtypes and 13 ng/μL for the α1d subtype).” left out

α1b-AR = target: T3, α1b-AR (Homo sapiens, UniProt P35368); experiment: α1-Adrenergic receptor radio-ligand (125I-HEAT) binding assay, α1b subtype; conditions: for Ki: Receptor Binding, Ki α1b-AR, COS-7 cell membranes, 125I-HEAT
T3 sequence (P35368 1-520): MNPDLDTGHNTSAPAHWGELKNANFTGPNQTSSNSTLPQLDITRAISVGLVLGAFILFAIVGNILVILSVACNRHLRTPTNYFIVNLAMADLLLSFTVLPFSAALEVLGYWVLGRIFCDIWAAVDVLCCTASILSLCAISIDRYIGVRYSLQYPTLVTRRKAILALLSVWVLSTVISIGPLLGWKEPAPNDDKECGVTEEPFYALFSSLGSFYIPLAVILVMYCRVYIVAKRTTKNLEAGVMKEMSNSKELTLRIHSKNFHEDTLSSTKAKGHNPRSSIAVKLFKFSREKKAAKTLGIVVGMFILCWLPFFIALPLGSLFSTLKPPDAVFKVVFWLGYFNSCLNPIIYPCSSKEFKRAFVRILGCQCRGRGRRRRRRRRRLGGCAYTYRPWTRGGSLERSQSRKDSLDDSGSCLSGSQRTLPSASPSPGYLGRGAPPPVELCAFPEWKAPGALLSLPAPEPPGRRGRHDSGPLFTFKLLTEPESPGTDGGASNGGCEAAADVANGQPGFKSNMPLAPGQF

Compound | Kd (α1a-AR; radio-ligand, read-out: Kd used in the Ki calculation, α1a-AR) | Kd (α1d-AR; radio-ligand, read-out: Kd used in the Ki calculation, α1d-AR) | Kd (α1b-AR; read-out: Kd used in the Ki calculation, α1b-AR, radio-ligand) | Ki (α1a-AR) | Ki (α1d-AR) | Ki (α1b-AR)
O=C1c2ccccc2CCC1CNCCc1ccc(O)c(I)c1 (stereo not shown) [125I-HEAT, reference compound] | 81.5 nM | 50 nM | 79 nM | – | – | –
CC(C)Oc1ccccc1N1CCN([C@H]2CC[C@@H](NS(=O)(=O)c3ccc(Cl)cc3Cl)CC2)CC1 [Cpd 1, 2,4-Dichloro-N-cis-{4-[4-(2-isopropoxy-phenyl)-piperazine-1-yl]-cyclohexyl}-benzenesulfonamide] | – | – | – | 4.5 nM | 0.64 nM | 177 nM
COc1ccc(Cl)cc1S(=O)(=O)N[C@H]1CC[C@@H](N2CCN(c3ccccc3OC(C)C)CC2)CC1 [Cpd 3, 5-Chloro-N-cis-{4-[4-(2-isopropoxy-phenyl)-piperazin-1-yl]-cyclohexyl}-2-methoxy-benzenesulfonamide] | – | – | – | 2.5 nM | – | 47.6 nM
COc1ccc(C)cc1S(=O)(=O)N[C@H]1CC[C@@H](N2CCN(c3ccccc3OC(C)C)CC2)CC1 [Cpd 4, N-cis-{4-[4-(2-Isopropoxy-phenyl)-piperazin-1-yl]-cyclohexyl}-2-methoxy-5-methyl-benzenesulfonamide] | – | – | – | 4.6 nM | 3.8 nM | 141 nM
CC(C)Oc1ccccc1N1CCN([C@H]2CC[C@@H](NS(=O)(=O)c3ccccc3S(C)(=O)=O)CC2)CC1 [Cpd 5, N-cis-{4-[4-(2-Isopropoxy-phenyl)-piperazin-1-yl]-cyclohexyl}-2-methanesulfonyl-benzenesulfonamide] | – | – | – | 12.5 nM | 2.8 nM | 118 nM
CC(C)Oc1ccccc1N1CCN([C@H]2CC[C@@H](NS(=O)(=O)c3ccc(C(F)(F)F)cc3)CC2)CC1 [Cpd 9, N-cis-{4-[4-(2-Isopropoxy-phenyl)-piperazin-1-yl]-cyclohexyl}-4-trifluoromethyl-benzenesulfonamide] | – | – | – | 25 nM | 18 nM | 124 nM
CC(C)Oc1ccccc1N1CCN([C@H]2CC[C@@H](NS(=O)(=O)c3ccc(F)cc3)CC2)CC1 [Cpd 10, 4-Fluoro-N-cis-{4-[4-(2-isopropoxy-phenyl)-piperazin-1-yl]-cyclohexyl}-benzenesulfonamide] | – | – | – | 5.6 nM | 4.8 nM | 150 nM
Cc1c(Cl)cccc1S(=O)(=O)N[C@H]1CC[C@@H](N2CCN(c3ccccc3OC(C)C)CC2)CC1 [Cpd 11, 3-Chloro-N-cis-{4-[4-(2-isopropoxy-phenyl)-piperazin-1-yl]-cyclohexyl}-2-methyl-benzenesulfonamide] | – | – | – | 18 nM | 1.1 nM | 129 nM
CC(C)Oc1ccccc1N1CCN([C@H]2CC[C@@H](NS(=O)(=O)c3cc(Cl)ccc3F)CC2)CC1 [Cpd 12, 5-Chloro-2-fluoro-N-cis-{4-[4-(2-isopropoxy-phenyl)-piperazin-1-yl]-cyclohexyl}-benzenesulfonamide] | – | – | – | 3.8 nM | 0.4 nM | 66 nM
CC(C)Oc1ccccc1N1CCN([C@H]2CC[C@@H](NS(=O)(=O)c3ccccc3C(F)(F)F)CC2)CC1 [Cpd 13, N-cis-{4-[4-(2-Isopropoxy-phenyl)-piperazin-1-yl]-cyclohexyl}-2-trifluoromethyl-benzenesulfonamide] | – | – | – | 23 nM | 3.4 nM | 190 nM
CC(C)Oc1ccccc1N1CCN([C@H]2CC[C@@H](NS(=O)(=O)c3ccc(F)c(Cl)c3)CC2)CC1 [Cpd 14, 3-Chloro-4-fluoro-N-cis-{4-[4-(2-isopropoxy-phenyl)-piperazin-1-yl]-cyclohexyl}-benzenesulfonamide] | – | – | – | 11.6 nM | 4.3 nM | 246 nM
COc1ccc(F)cc1S(=O)(=O)N[C@H]1CC[C@@H](N2CCN(c3ccccc3OC(C)C)CC2)CC1 [Cpd 15, 5-Fluoro-N-cis-{4-[4-(2-isopropoxy-phenyl)-piperazin-1-yl]-cyclohexyl}-2-methoxy-benzenesulfonamide] | – | – | – | 6 nM | 5 nM | 162 nM
CC(C)Oc1ccccc1N1CCN([C@H]2CC[C@@H](NS(=O)(=O)c3ccc(OC(F)(F)F)cc3)CC2)CC1 [Cpd 17, N-cis-{4-[4-(2-Isopropoxy-phenyl)-piperazin-1-yl]-cyclohexyl}-4-trifluoromethoxy-benzenesulfonamide] | – | – | – | 17.4 nM | 2.1 nM | 174 nM
Cc1ccc(S(=O)(=O)N[C@H]2CC[C@@H](N3CCN(c4ccccc4OC(C)C)CC3)CC2)cc1Cl [Cpd 18, 3-Chloro-N-cis-{4-[4-(2-isopropoxy-phenyl)-piperazin-1-yl]-cyclohexyl}-4-methyl-benzenesulfonamide] | – | – | – | 10.5 nM | 11.1 nM | 167 nM
COc1ccc([N+](=O)[O-])cc1S(=O)(=O)N[C@H]1CC[C@@H](N2CCN(c3ccccc3OC(C)C)CC2)CC1 [Cpd 19, N-cis-{4-[4-(2-Isopropoxy-phenyl)-piperazin-1-yl]-cyclohexyl}-2-methoxy-5-nitro-benzenesulfonamide] | – | – | – | 4.3 nM | 2.2 nM | 85.3 nM
COc1ccc(C(F)(F)F)cc1S(=O)(=O)N[C@H]1CC[C@@H](N2CCN(c3ccccc3OC(C)C)CC2)CC1 [Cpd 20, N-cis-{4-[4-(2-Isopropoxy-phenyl)-piperazin-1-yl]-cyclohexyl}-2-methoxy-5-trifluoromethyl-benzenesulfonamide] | – | – | – | 35.9 nM | 14 nM | 473 nM
COc1ccc(Cl)cc1S(=O)(=O)N[C@H]1CC[C@H](N2CCN(c3ccccc3OC(C)C)CC2)CC1 [Cpd 31, 5-Chloro-N-trans-{4-[4-(2-isopropoxy-phenyl)-piperazin-1-yl]-cyclohexyl}-2-methoxy-benzenesulfonamide] | – | – | – | 3.8 nM | – | 250 nM
